Experimental data reported in US20060286561A1, “PROPARGYLETHOXYAMINO NUCLEOTIDES” (Applera Corporation; Applied Biosystems Group, priority 1996, published 2006).

What was measured:
Type in all cases: biochemical
[1] = molecular target: T1, AmpliTaq DNA Polymerase, FS (Thermus aquaticus, UniProt P19821, F667Y/G46D); test: Terminator Titration Assay (dye-terminator cycle sequencing reaction); settings: for Relative Molar Excess Terminator Required: to form a full sequencing ladder
T1 construct: purchased PE Applied Biosystems p/n 402117
T1 sequence (P19821 whole entry G46D/F667Y): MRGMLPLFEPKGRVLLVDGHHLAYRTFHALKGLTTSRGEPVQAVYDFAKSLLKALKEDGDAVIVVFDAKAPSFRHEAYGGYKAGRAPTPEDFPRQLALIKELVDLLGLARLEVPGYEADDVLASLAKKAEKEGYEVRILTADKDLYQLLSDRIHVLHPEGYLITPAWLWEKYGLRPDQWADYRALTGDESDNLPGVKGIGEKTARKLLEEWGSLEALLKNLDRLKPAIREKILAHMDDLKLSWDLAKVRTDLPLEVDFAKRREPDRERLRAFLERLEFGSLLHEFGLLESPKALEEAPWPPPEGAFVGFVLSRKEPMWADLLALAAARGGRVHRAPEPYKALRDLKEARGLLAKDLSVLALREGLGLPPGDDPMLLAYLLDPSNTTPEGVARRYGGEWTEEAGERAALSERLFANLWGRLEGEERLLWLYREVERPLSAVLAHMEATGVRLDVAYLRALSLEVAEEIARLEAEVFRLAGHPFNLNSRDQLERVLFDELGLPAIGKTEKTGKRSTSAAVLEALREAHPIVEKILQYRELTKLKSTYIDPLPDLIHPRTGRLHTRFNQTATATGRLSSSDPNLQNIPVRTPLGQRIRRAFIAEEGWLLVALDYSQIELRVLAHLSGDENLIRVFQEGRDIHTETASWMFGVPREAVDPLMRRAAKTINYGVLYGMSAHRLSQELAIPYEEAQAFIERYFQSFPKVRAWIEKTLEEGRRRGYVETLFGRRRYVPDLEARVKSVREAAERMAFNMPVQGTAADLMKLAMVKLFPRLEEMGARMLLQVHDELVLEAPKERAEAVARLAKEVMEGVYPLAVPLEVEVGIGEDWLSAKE
Text: The Terminator Titration Assay was used to determine the minimum amount of dye terminator required to create a full sequencing ladder, i.e., a sequencing ladder including all fragments terminating in a particular base having a length of between about 20 to about 600 nucleotides. The key components of the assay were (i) a primer labeled with a first dye, and (i) a terminator labeled with a second dye spectrally resolvable from the first dye. In the assay, when an insufficient concentration of dye terminator was added to the sequencing reaction, no dideoxy-terminated fragments were formed, and all that was seen on the sequencing gel were products formed by “false stops” that were labeled with the first dye only. As used herein the term “false stops” refer to primer extension products not terminating in a dideoxy terminator, such products probably being formed when the polymerase enzyme spontaneously disengages with the template strand. When too much terminator was used, only short termination products were formed, i.e., less than about 50 nucleotides in length, such products including both the first and second dyes. When the proper amount of terminator was used, a full sequencing ladder was produced, each fragment of the ladder being labeled with both the first and second dyes.
The dye-terminator reactions were performed using AmpliTaq DNA Polymerase, FS following protocols provided in the ABI PRISM™ Dye Terminator Cycle Sequencing Core Kit Manual (PE Applied Biosystems p/n 402116). (The FS enzyme is a recombinant Thermus aquaticus DNA polymerase having two point mutations--G46D and F667Y). All reagents except the dNTP mix, dye labeled primers, and dye-labeled terminators were from an ABI PRISM™ Dye Terminator Core Kit (PE Applied Biosystems p/n 402117). The dNTP mix consisted of 2 mM each of dATP, dCTP, dGTP and dTTP. A premix of reaction components was prepared as shown in the following table wherein all quantities are given on a per reaction basis:
Reactions were assembled in 0.5 ml tubes adapted for the Perkin-Elmer 480 DNA Thermal Cycler (PE Applied Biosystems p/n N801-100). Reaction volumes were 20 μL, including 15 μL, of the above reaction premix, a variable amount of dye labeled terminator, and a sufficient volume of water to bring the total reaction volume up to 20 μL. From 1 to 1000 pmol of the dye terminator was added to each reaction. 30 μL of mineral oil was added to the top of each reaction to prevent evaporation. Reactions were thermocycled as follows: 96° C. for 30 sec, 50° C. for 15 sec, and 60° C. for 4 min, for 25 cycles; followed by a 4° C. hold cycle.
All reactions were purified by spin-column purification on Centri-Sep spin columns according to manufacturer's instructions (Princeton Separations p/n CS-901). Gel material in the column was hydrated with 0.8 mL deionized water for at least 30 minutes at room temperature. After the column was hydrated and it was determined that no bubbles were trapped in the gel material, the upper and lower end caps of the column were removed, and the column was allowed to drain by gravity. The column was then inserted into the wash tubes provided in the kit and centrifuged in a variable speed microcentrifuge at 1300×g for 2 minutes, removed from the wash tube, and inserted into a sample collection tube. The reaction mixture was carefully removed from under the oil and loaded onto the gel material. Columns were centrifuged in a variable speed microcentrifuge at 1300×g for 2 minutes. Eluted samples were then dried in a vacuum centrifuge.
Prior to loading onto a sequencing gel, the dried samples were resuspended in 25 μL of Template Suppression Reagent (PE Applied Biosystems p/n 401674), vortexed, heated to 95° C. for 2 minutes, cooled on ice, vortexed again, and centrifuged (13,000×g). 10 μL of the resuspended sample was aliquoted into sample vials (PE Applied Biosystems p/n 401957) adapted for the PE ABI PRISM™ 310 Genetic Analyzer (PE Applied Biosystems p/n 310-00-100/120). […]

[2] = molecular target: AmpliTaq FS Polymerase (mutant form of Taq DNA polymerase) (Thermus aquaticus, UniProt P19821, F667Y/G46D); test: Single-Nucleotide Incorporation Assay for relative enzyme selectivity; settings: for ddCTP/(Dye)-ddCTP (ratio of incorporation rates, preference for unlabeled ddCTP): ddCTP and dye-ddCTP each 200 μM, 8 nM enzyme, 60° C., corrected for energy transfer
Sequence of AmpliTaq FS Polymerase (mutant form of Taq DNA polymerase) (P19821 whole entry G46D/F667Y): as above
Text: In the assay, an unlabeled terminator and its cognate dye-labeled terminator are present in equal concentrations and allowed to compete for the same polymerase-substrate binding site under enzyme limited (steady-state) conditions.
With reference to FIG. 3, the components of the assay include a 36 nucleotide template (5); a 25 nucleotide primer (10) having a sequence complementary to the template and a first fluorescent label at the 5′-end (15); an unlabeled terminator (20); a dye-labeled terminator (25) having a second fluorescent label attached thereto (30) which is spectrally resolvable from the first fluorescent label; and a polymerase enzyme. In the present example, the unlabeled terminator was 2′,3′-ddCTP and the dye-labeled terminator was 6-(FAM)-ddCTP where different linker arms were used to attach the dye to the nucleotide. The template DNA contained a single G (35) at the template position following the end of the primer.
Products (40) and (45) were detected by resolving them electrophoretically and detecting the resulting bands using an ABI PRISM™ 373 DNA Sequencer (PE Applied Biosystems). A typical banding pattern consisted of a 25-mer band corresponding to the labeled primer (10), a 26-mer band corresponding to the product (40) and an “apparent 27-mer” which corresponded to product (45). The apparent extra base seen in product (45) is a result of the effect of the dye-labeled terminator on the electrophoretic mobility of the fragment. By taking samples from a reaction mixture and measuring the relative amounts of DNA in the 25-mer, 26-mer, and apparent 27-mer bands as a function of time, it was possible to measure the relative incorporation rates of the unlabeled and dye-labeled terminators in the reaction. […] In this manner, it was possible to measure the effect of linker structure on dye-terminator incorporation.
For the case of product (45), it is necessary to correct the fluorescence signal for fluorescence energy transfer which takes place between the first fluorescent label (15) located at the 5′-end of product (45), TAMRA in this example, and the second fluorescent label (30) located on the terminator positioned at the 3′-end of product (45), FAM in this example. Under the conditions used for detection, the presence of the 3′-FAM label serves to enhance the signal resulting from the TAMRA label. The energy-transfer correction is accomplished by synthesizing a doubly labeled internal standard molecule having the same structure as product (45), preparing a control sample containing equal moles of the 5′-TAMRA labeled primer (10) and the doubly labeled internal standard molecule, and running the control sample in a control lane on the same gel as assay products (40) and (45). Any difference in TAMRA fluorescence between the primer (10) and the doubly labeled internal standard is a quantitative measure of the extent of energy transfer between the dye moieties in the assay product (45). […] This measurement was used to correct the TAMRA fluorescence from the product (45) in each of the test sample lanes.
(The numbers in parenthesis next to certain components refer to elements in FIG. 3.)
The assay reactions were prepared as follows. Two 2×-concentrated “Half Reaction Mixtures” were prepared and held on ice. A first solution, the “2× Enz·DNA” mixture, comprised […] template/primer DNA and […] AmpliTaq FS in 80 mM TRIS buffer. A second solution, the “2× Mg·Nuc” mixture, comprised 80 mM TRIS buffer plus 4.8 mM MgCl2 and each of the nucleotides at 400 μM. A “Zero Time Control” sample was prepared by adding 1 μl of the 2× Enz-DNA mixture to 25 μl of “STOP Solution” (0.5 M EDTA, […]), and, after mixing, adding 1 μl of the 2× Mg·Nuc mixture. The Zero Time Control sample was held on ice until the remainder of the timed samples were also collected for further processing. […]

[3] = molecular target: T1, AmpliTaq DNA Polymerase, FS; test: Terminator Titration Assay (dye-terminator cycle sequencing reaction); settings: for mean peak height / relative error of peak height (standard deviation / mean): FIG. 2, at optimal terminator concentration; for relative error of peak height (standard deviation / mean): lower = more even peak heights; for optimal concentration of terminator: FIG. 2, sequencing pattern comparison
[4] = C-terminator linked to 6-FAM dye, unlabeled dideoxy terminator = 1
[5] = C-terminator, various combinations of dyes and linkers, unlabeled terminator = 1

Row | Structure (SMILES) | Relative Molar Excess Terminator Required [1, 4] | Relative Molar Excess Terminator Required [1, 5] | ddCTP/(Dye)-ddCTP (ratio of incorporation rates, preference for unlabeled ddCTP) [2] | ddCTP/(Dye)-ddCTP (ratio of incorporation rates, preference for unlabeled ddCTP) ([2]; listed as FAM-ddCTP (propargylamido linker)) | mean peak height [3] | relative error of peak height (standard deviation / mean) [3] | optimal concentration of terminator [3] | reduced molar excess as compared with terminators employing the propargylamido linker ([1]; C-terminator) | reduced molar excess as compared with terminators employing a propargyl-2-ethoxyamido linker ([1]; C-terminator linked to 6-FAM) | ddCTP/(Dye)-ddCTP (ratio of incorporation rates, preference for unlabeled ddCTP) ([2]; listed as FAM-ddCTP (propargyl-1-ethoxyamido linker)) | increase of bias against dye-ddCTP versus propargylamido linker ([2]; FAM-ddCTP, from 65× to 110×) | ddCTP/(Dye)-ddCTP (ratio of incorporation rates, preference for unlabeled ddCTP) ([2]; listed as FAM-ddCTP (propargyl-2-ethoxyamido linker))
1 | Nc1nc(=O)n(C2CCC(COP(=O)(O)OP(=O)(O)OP(=O)(O)O)O2)cc1C#CCNC(=O)c1ccc2c(c1)C(=O)OC21c2ccc(O)cc2Oc2cc(O)ccc21 (stereo not shown) [(6-FAM)-propargylamido-C, reference compound] | 55 | 55 | 65× | 65 × | 1800 | 0.533 | 250 pmol |  |  |  |  | 
2 | Nc1nc(=O)n(C2CCC(COP(=O)(O)OP(=O)(O)OP(=O)(O)O)O2)cc1C#CCOCCNC(=O)c1ccc2c(c1)C(=O)OC21c2ccc(O)cc2Oc2cc(O)ccc21 (stereo not shown) [(6-FAM)-propargyl-1-ethoxyamido-C] | 9 | 9 | 19× |  | 504 | 0.436 | 50 pmol | six-fold | five-fold | 19 × |  | 
3 | Nc1nc(=O)n(C2CCC(COP(=O)(O)OP(=O)(O)OP(=O)(O)O)O2)cc1C#CCOCCOCCNC(=O)c1ccc2c(c1)C(=O)OC21c2ccc(O)cc2Oc2cc(O)ccc21 (stereo not shown) [(6-FAM)-propargyl-2-ethoxyamido-C] | 45 |  | 110× |  |  |  |  |  |  |  | about 2 fold | 110 ×
4 | Nc1ccn([C@H]2CC[C@@H](COP(=O)(O)OP(=O)(O)OP(=O)(O)O)O2)c(=O)n1 [Unlabeled terminator, 2′,3′-ddCTP, reference compound] | 1 | 1 |  |  |  |  |  |  |  |  |  | 
